Test results reported in patent publication US20100075907A1, “NEUROMEDIN U RECEPTOR AGONISTS AND USES THEREOF” (priority 2006, published 2010).
“Also recorded” adds a separate entry of the source. Non-standard residues stand in square brackets, D forms with d. (PEG)2 40 kDa = branched PEG of 40 kDa linked via the Cys side-chain thiol (code C2 = Cys(PEG)2 40 kDa)

Columns and labels:
[1] = test system: diet-induced obese mice; test: Feeding study in diet-induced obese mice (food intake, body weight); format: in vivo; settings: for % Food intake (FI) reductions Day 1: Day 1, based on vehicle responses; for % Food intake (FI) reductions Day 2: Day 2, based on vehicle responses; for % Food intake (FI) reductions Day 3: Day 3, based on vehicle responses; for anorectic effect: acute administration; for body weight / duration of reductions in food intake: single acute subcutaneous administration
Text: NMUR1 knockout (Nmur1−/−) mice were generated using standard homologous recombination techniques. Nmur1 mice were subsequently transferred to Taconic Farms where they were either maintained on a 75% C57BL/6×25% 129S6/SvEv mixed genetic background or backcrossed six generations to C57BL/6. NMUR2 knockout (Nmur2−/−) mice were licensed from Deltagen Inc., San Mateo, Calif. and subsequently transferred to Taconic Farms where they were either maintained on a 75% C57BL/6×25% 129/OlaHsd mixed genetic background or backcrossed for seven generations to C57BL/6. NMUR1 and NMUR2 double knockout (Nmur1&2−/−) mice were generated by crossing N6 Nmur1−/− mice to N7 Nmur2−/− mice. Mice were individually housed in Tecniplast cages in a conventional SPF facility. Mice were initially maintained on a regular chow diet and then early in their life were switched to a high fat diet (D12492: 60% kcal from fat; Research Diets, Inc., New Brunswick, N.J.) with ad libitum access to water in a 12-hour light/12-hour dark cycle.
Ad libitum fed male diet-induced obese mice were weighed and dosed either i.p. or s.c. about 30 minutes prior to the onset of the dark phase of the light cycle and provided with a preweighed aliquot of high fat diet D12492 which was then weighed 2 hours and 18 hours (day 1), 42 hours (day 2), 66 hours (day 3), and 90 hours (day 4) after the onset of the initial dark phase. Mice were weighed at the 18, 42, 66 and 90 hour time points.

[2] = Pharmacokinetic analysis using the FLIPR bioassay; format: in vivo; settings: mice, 10 mg/kg subcutaneously, compared with hNMU-25
Description: Neuromedin U receptor agonist NMU12 exposure levels in dosed animals were measured using the bioassay and compared with hNMU-25 exposure levels. Animals were dosed subcutaneously with 10 mg/kg NMU12 or hNMU-25 and plasma was collected at various time points post-dose. The bioassay was a FLIPR-based assay, which was performed essentially as described above with the following modifications. Sample preparation prior to the assay was performed on ice to minimize degradation of plasma samples. The assay was run with 4% plasma as the final concentration. A three-point titration was done with the dosed plasma and tested on human NMUR1-expressing cell lines using FLIPR. The response after sample addition was taken as the maximum fluorescence units minus the fluorescence immediately prior to stimulation for each well. In addition to a three-point titration of dosed plasma samples, a 16-point titration of the peptide (hNMU-25 or NMU12) was run in 4% plasma (naive plasma) to serve as the standard. The concentration of the peptide in plasma was calculated based on extrapolations from the appropriate standard using the GraphPad Prism software.

[3] = biological target: hNMUR2 (Homo sapiens, UniProt Q9GZQ4); test: FLIPR calcium mobilization assay, human NMUR2; format: cell-based; parameters: expressed in transfected cells; host or cells: FLP-In CHO or HEK-293 FLP-In cells (pcDNA5); HEK-293/aeq17 lines (pcDNA3.1) were also made; settings: human NMUR2
Sequence of hNMUR2 (Q9GZQ4 whole entry): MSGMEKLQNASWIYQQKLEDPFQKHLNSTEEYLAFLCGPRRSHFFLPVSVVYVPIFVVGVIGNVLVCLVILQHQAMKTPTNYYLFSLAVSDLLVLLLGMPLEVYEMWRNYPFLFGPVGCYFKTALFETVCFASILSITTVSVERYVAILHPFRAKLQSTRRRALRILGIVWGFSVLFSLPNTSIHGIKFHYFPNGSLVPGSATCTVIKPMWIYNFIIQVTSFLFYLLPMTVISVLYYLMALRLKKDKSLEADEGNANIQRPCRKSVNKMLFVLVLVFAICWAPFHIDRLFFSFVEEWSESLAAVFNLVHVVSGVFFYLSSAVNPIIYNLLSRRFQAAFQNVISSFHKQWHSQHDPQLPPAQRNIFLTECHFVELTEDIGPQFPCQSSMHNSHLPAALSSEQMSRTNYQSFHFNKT
Text: (§1) Human, mouse or rat cDNAs encoding NMUR1 or NMUR2 (as described in Howard et al. Nature 406: 70-74 (2000) were subcloned in pcDNA5 (Invitrogen) and transfected into FLP-In CHO cells and HEK-293 FLP-In cells purchased from Invitrogen (Carlsbad, Calif.) using lipofectamine (Invitrogen). The Flp-In system allows integration and expression of a particular gene of interest at a specific genomic location utilizing the Flp recombinase from yeast. The transfected cells were selected by growth in medium containing 200 μg/mL hygromycin (Invitrogen). Populations were frozen at early passage numbers, and these stocks were used for further studies. Stable clones that expressed the mRNAs were identified functionally by FLIPR as well as by RT-PCR. […] Two different rodent NMUR1 cell lines were thus generated: one with the codon as predicted from the genomic databases and another cell line with an engineered methionine (ATG) as the start codon. Additionally, stable cell lines expressing the human receptors were generated in HEK-293/aeq17 cells which stably express the aequorin gene under the CMV promoter. The human NMUR2 cDNA was cloned into pcDNA3.1 and human NMUR1 was subcloned into pIRES-puro (Clontech, Mountain View, Calif.), after transfection cells were selected in media containing G418 and either hygromycin (NMUR2) or puromycin (NMUR1).
(§2) The NMU receptors signal primarily through Gαq/11 proteins; therefore calcium mobilization assays can be utilized for functional activity.
(§3) Stable cell lines expressing human and or rodent NMUR1 or human NMUR2 receptors were plated at a density of 12,000 cells per well overnight on poly-lysine coated 384-well black-walled plates. The following day, the media was removed from the plates and the cells were subsequently loaded with Fluo-3 (Molecular Probes), a calcium sensitive dye, diluted in FLIPR buffer (1× Hank's buffered saline containing 20 mM HEPES, 0.1% BSA, 2.5 mM probenecid (Sigma) and 1.6 mM TR40). All reagents are from Invitrogen unless otherwise noted. Peptide stocks were resuspended in DMSO at a stock concentration of 2 mM and diluted in FLIPR buffer on the day of the experiment to a 4 μM working stock solution.
(§4) After a 90 minute incubation at room-temperature, cell plates were loaded onto a FLIPR (Molecular Devices) to monitor cellular fluorescence (excitation=488 nm; emission=540 nm) before and after compound/peptide addition. Eight to twelve point dose responses were tested on NMUR-expressing cell lines using FLIPR with 1 μM peptide as the highest dose. The response after peptide addition was taken as the maximum fluorescence units minus the fluorescence immediately prior to stimulation for each well. EC50 values were calculated using GraphPad Prism (San Diego, Calif.) software.
(§5) In vitro responses of Neuromedin U receptor agonists (NMU1 to NMU25) in the FLIPR assay for human (Table 3), mouse (Table 4) and rat (Table 5) NMUR1 and NMUR2. EC50s are reported in nM values. Percent activity refers to the maximum response at 1 μM compared to the hNMU-25 response at the same concentration. NT=not tested.

[4] = biological target: T1, hNMUR1 (Homo sapiens, UniProt Q9HB89); test: FLIPR calcium mobilization assay, human NMUR1; format: cell-based; parameters: expressed in transfected cells; host or cells: FLP-In CHO or HEK-293 FLP-In cells (pcDNA5); HEK-293/aeq17 lines (pIRES-puro) were also made; settings: human NMUR1
T1 sequence (Q9HB89 1-426): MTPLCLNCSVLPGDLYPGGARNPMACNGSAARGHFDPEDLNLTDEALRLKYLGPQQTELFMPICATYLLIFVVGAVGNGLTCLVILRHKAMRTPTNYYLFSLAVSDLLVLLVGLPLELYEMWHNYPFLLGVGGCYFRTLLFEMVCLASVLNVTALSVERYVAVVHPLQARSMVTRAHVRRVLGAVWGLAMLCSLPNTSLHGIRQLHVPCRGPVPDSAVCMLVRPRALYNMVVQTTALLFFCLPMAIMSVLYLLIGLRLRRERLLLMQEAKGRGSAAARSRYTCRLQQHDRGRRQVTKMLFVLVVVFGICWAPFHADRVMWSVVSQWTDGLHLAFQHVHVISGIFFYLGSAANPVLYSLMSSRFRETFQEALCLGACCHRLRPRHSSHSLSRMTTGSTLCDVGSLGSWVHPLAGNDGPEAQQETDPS
Text: as §1, §2, §3, §4, §5

Ac-C3FRVDEEFQSPFASQSRGYFLFRPRN-CONH2 (Ac-CFRVDEEFQSPFASQSRGYFLFRPRN-NH2; not fully specified (residue 1); printed as Ac-C3FRVDEEFQSPFASQSRGYFLFRPRN-CONH2) [NMU10, C3 = cysteine linked to cholesterol via the side-chain thiol]
Body weight (BW) change (in grams) {relative to vehicle} Day 1 ([1]; 10 mg/kg): −1.2 grams
% Food intake (FI) reductions Day 1 ([1]; 10 mg/kg): 24%

Ac-C2FRVDEEFQSPFASQSRGYFLFRPRN-CONH2 [NMU12] (Ac-C((PEG)2 40 kDa)FRVDEEFQSPFASQSRGYFLFRPRN-NH2)
Body weight (BW) change (in grams) {relative to vehicle} Day 1 ([1]; 10 mg/kg): −1.8 grams
% Food intake (FI) reductions Day 1 ([1]; 10 mg/kg): 51%
Body weight (BW) change (in grams) {relative to vehicle} Day 2 ([1]; 10 mg/kg): −1.3 grams
% Food intake (FI) reductions Day 2 ([1]; 10 mg/kg): 50%
Body weight (BW) change (in grams) {relative to vehicle} Day 3 ([1]; 10 mg/kg): −0.2 grams
% Food intake (FI) reductions Day 3 ([1]; 10 mg/kg): 15%
duration of reductions in food intake and body weight ([1]; NMUR1 knockout animals): two days post dose
duration of reductions in food intake and body weight ([1]; NMUR2 knockout animals): only overnight effects
anorectic effect ([1]; NMUR1/NMUR2 double knockout animals): no effect was observed
anorectic effect ([1]; wild-type animals): highly efficacious
cumulative food intake reduction relative to the vehicle treated group ([1]; chronic administration QD, Q2D or Q3D): 12-27%
food intake ([1]; peripheral administration, Nmur1 knockout mice): able to reduce food intake
crossing the blood-brain barrier ([1]; peripheral administration, inferred from knockout mice): capable of crossing the blood-brain barrier; also recorded: able to cross the blood-brain barrier
body weight [1]: significant reduction
duration of reductions in food intake [1]: three days
metabolic stability in vivo (plasma exposure) [2]: greater metabolic stability in vivo
half-life in human plasma: greater than three days

Ac-C2ASQSRGYFLFRPRN-CONH2 (Ac-C((PEG)2 40 kDa)ASQSRGYFLFRPRN-NH2) [NMU18, C2 = Cys(PEG)240 kDa]
extension of serum half-life by PEGylation [1]: two days
Body weight (BW) change (in grams) {relative to vehicle} Day 1 ([1]; 10 mg/kg): −2.6 grams
% Food intake (FI) reductions Day 1 ([1]; 10 mg/kg): 71%
Body weight (BW) change (in grams) {relative to vehicle} Day 2 ([1]; 10 mg/kg): −0.2 grams
% Food intake (FI) reductions Day 2 ([1]; 10 mg/kg): 40%

Ac-C2-Ttds-FLFRPRN-CONH2 (Ac-CFLFRPRN-NH2; not fully specified (residue 1); printed as Ac-C2-Ttds-FLFRPRN-CONH2) [NMU16, C2 = Cys(PEG)240 kDa]
Body weight (BW) change (in grams) {relative to vehicle} Day 1 ([1]; 10 mg/kg): −0.3 grams
% Food intake (FI) reductions Day 1 ([1]; 10 mg/kg): 11%
Body weight (BW) change (in grams) {relative to vehicle} Day 1 ([1]; 30 mg/kg): −0.9 grams
% Food intake (FI) reductions Day 1 ([1]; 30 mg/kg): 25%

Ac-C2GYFLFRPRN-CONH2 ({Ac-C(PEG 40 kDa)}-GYFLFRPRN-NH2) [NMU7, C2 = Cys(PEG)240 kDa]
Body weight (BW) change (in grams) {relative to vehicle} Day 1 ([1]; 10 mg/kg): −1.7 grams
% Food intake (FI) reductions Day 1 ([1]; 10 mg/kg): 44%
EC50 ([3]; FLIPR): 36.1 nM
% Activity ([3]; maximum response at 1 μM compared to hNMU-25): 91.8%
EC50 ([4]; FLIPR): 79.6 nM
% Activity ([4]; maximum response at 1 μM compared to hNMU-25 response at same concentration): 91.4%

Ac-C2FRVDEEFQSPFASQSRGYFaWRPRN-CONH2 (Ac-C((PEG)2 40 kDa)FRVDEEFQSPFASQSRGYF[dA]WRPRN-NH2) [NMU14, C2 = Cys(PEG)240 kDa; a = D-Alanine]
Body weight (BW) change (in grams) {relative to vehicle} Day 1 ([1]; 50 mg/kg): −0.1 grams

P1-FRVDEEFQSPFASQSRGYFLFRPRN-CONH2 ({branched PEG 40 kDa}-FRVDEEFQSPFASQSRGYFLFRPRN-NH2) [NMU1]
extension of serum half-life by PEGylation [1]: three days
Body weight (BW) change (in grams) {relative to vehicle} Day 1 ([1]; 10 mg/kg): −1.4 grams
% Food intake (FI) reductions Day 1 ([1]; 10 mg/kg): 57%
Body weight (BW) change (in grams) {relative to vehicle} Day 2 ([1]; 10 mg/kg): −1.7 grams
% Food intake (FI) reductions Day 2 ([1]; 10 mg/kg): 56%
Body weight (BW) change (in grams) {relative to vehicle} Day 3 ([1]; 10 mg/kg): −0.4 grams
% Food intake (FI) reductions Day 3 ([1]; 10 mg/kg): 22%
efficacy at reducing overnight food intake compared to hNMU-25 ([1]; acute subcutaneous administration): greater efficacy
body weight [1]: Significant reductions in body weight
duration of reductions in food intake [1]: three days post-dose
half-life in human plasma: greater than three days
